Each structure is given as a SMILES string.

Results on 5 compounds are retold here after patent US20040086901A1, “Database for analyzing gene function and method of analyzing gene function by dspa” (priority 2000, published 2004).

Holding throughout (assay type): cell-based, mouse
The test system of experiment [1] is NIH3T3 cells overexpressing cystatin alpha. The experiment is described as follows: MTT cell viability, cystatin alpha overexpressing cells vs parental line. The conditions noted are these: cystatin alpha high-expressing cells / parental cell line, 3 to 4 days. In a few lines:
(§1)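 Stable NIH3T3 transfectants (cDNA in pRc-CMV-type vector, G-418-selected, high expressers picked by Western blot) and parental cells were seeded at 1×10^5 cells/ml into twofold serial drug dilutions and grown 3–4 days. MTT formazan was read at 574/655 nm, and log ratios of IC40 values were derived.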

In experiment [2] the test system is NIH3T3 cells overexpressing caspase-1. The experiment is described as follows: MTT cell viability, caspase-1 overexpressing cells vs parental line. The conditions noted are these: caspase-1 high-expressing cells / parental cell line, 3 to 4 days. The method, boiled down:
(§2)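 NIH3T3 high expressers vs parental; 2-fold serial dilution of drugs (DMSO stocks), 9 points; 10% CS-DMEM; 3–4 d culture; MTT 4 h 37 °C, stop with 0.04N HCl/isopropanol; A574/655. Readout is log(IC40 ratio).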

Experiment [3] deals with NIH3T3 cells overexpressing STAT1. The experiment is described as follows: MTT cell viability, STAT1 overexpressing cells vs parental line. The conditions noted are these: STAT1 high-expressing cells / parental cell line, 3 to 4 days. In a few lines:
as §2

Experiment [4] relates to NIH3T3 cells overexpressing p33/ING1. The experiment is described as follows: MTT cell viability, p33/ING1 overexpressing cells vs parental line. The conditions noted are these: p33/ING1 high-expressing cells / parental cell line, 3 to 4 days. The method, boiled down:
as §1

Experiment [5] has as its system NIH3T3 cells overexpressing HNF1. The experiment in a line: MTT cell viability, HNF1 overexpressing cells vs parental line. The conditions noted are these: HNF1 high-expressing cells / parental cell line, 3 to 4 days. The method, boiled down:
as §2

The subject of experiment [6] is NIH3T3 cells overexpressing Bax. The experiment in a line: MTT cell viability, Bax overexpressing cells vs parental line. The conditions noted are these: 3 to 4 days. The method, boiled down:
as §2

In experiment [7] the test system is NIH3T3 cells overexpressing HNF4. The experiment in a line: MTT cell viability, HNF4 overexpressing cells vs parental line. The conditions noted are these: HNF4 high-expressing cells / parental cell line, 3 to 4 days. The method, boiled down:
as §2

The test system of experiment [8] is NIH3T3 cells overexpressing coup. The experiment is described as follows: MTT cell viability, coup overexpressing cells vs parental line. The conditions noted are these: coup high-expressing cells / parental cell line, 3 to 4 days. The method, boiled down: as §1
In experiment [9] the test system is NIH3T3 cells overexpressing CBP8. The experiment in a line: MTT cell viability, CBP8 overexpressing cells vs parental line. The conditions noted are these: CBP8 high-expressing cells / parental cell line, 3 to 4 days. In a few lines: as §1
Experiment [10] relates to NIH3T3 cells overexpressing HNF3b. The experiment in a line: MTT cell viability, HNF3b overexpressing cells vs parental line. The conditions noted are these: HNF3b high-expressing cells / parental cell line, 3 to 4 days. In a few lines: as §2
Experiment [11] deals with NIH3T3 cells overexpressing cystatin E. The experiment is described as follows: MTT cell viability, cystatin E overexpressing cells vs parental line. The conditions noted are these: cystatin E high-expressing cells / parental cell line, 3 to 4 days. In a few lines:
as §1

In experiment [12] the test system is NIH3T3 cells overexpressing caspase-2. The experiment is described as follows: MTT cell viability, caspase-2 overexpressing cells vs parental line. The conditions noted are these: caspase-2 high-expressing cells / parental cell line, 3 to 4 days. The method, boiled down:
as §1

The subject of experiment [13] is NIH3T3 cells overexpressing PDGF-R-Del. The experiment is described as follows: MTT cell viability, PDGF-R-Del overexpressing cells vs parental line. The conditions noted are these: PDGF-R-Del high-expressing cells / parental cell line, 3 to 4 days. The method, boiled down: as §1
In experiment [14] the test system is NIH3T3 cells overexpressing calpastatin. The experiment in a line: MTT cell viability, calpastatin overexpressing cells vs parental line. The conditions noted are these: calpastatin high-expressing cells / parental cell line, 3 to 4 days. The method, boiled down:
as §1

Experiment [15] has as its system NIH3T3 cells overexpressing Ki-ras. The experiment in a line: MTT cell viability, Ki-ras overexpressing cells vs parental line. The conditions noted are these: Ki-ras high-expressing cells / parental cell line, 3 to 4 days. The method, boiled down: as §1
For experiment [16], the system named is NIH3T3 cells overexpressing N-ras. The experiment is described as follows: MTT cell viability, N-ras overexpressing cells vs parental line. The conditions noted are these: N-ras high-expressing cells / parental cell line, 3 to 4 days. The method, boiled down:
as §1

Experiment [17] relates to NIH3T3 cells overexpressing TK. The experiment in a line: MTT cell viability, TK overexpressing cells vs parental line. The conditions noted are these: TK high-expressing cells / parental cell line, 3 to 4 days. The method, boiled down:
as §1

The test system of experiment [18] is NIH3T3 cells overexpressing PKCepsilon-KN. The experiment is described as follows: MTT cell viability, PKCepsilon-KN overexpressing cells vs parental line. The conditions noted are these: 3 to 4 days. In a few lines: as §2
Experiment [19] deals with NIH3T3 cells overexpressing p38-DN. The experiment is described as follows: MTT cell viability, p38-DN overexpressing cells vs parental line. The conditions noted are these: p38-DN high-expressing cells / parental cell line, 3 to 4 days. In a few lines:
as §2

[20] abbreviates: Bax (first of two Bax lines) high-expressing cells / parental cell line.
[21] abbreviates: Bax (second of two Bax lines) high-expressing cells / parental cell line.
[22] abbreviates: PKCepsilon-KN (first of two lines) high-expressing cells / parental cell line.
Setting [23] is: PKCepsilon-KN (second of two lines) high-expressing cells / parental cell line.

For the compound `CO[C@H]1[C@@H](OC)C[C@H](C)[C@@H](OC)C2=CC(=O)C=C(NC(=O)/C(C)=C/C=C\[C@H](OC)[C@@H](OC(N)=O)/C(C)=C/[C@@H]1C)C2=O` [HMA, herbimycin A], the “logarithmic value of ratio of IC40 values” in [1] is given as −0.12; in [2] it was 0.00; in [3], −0.05; in experiment [4], 0.38; in experiment [5], 0.161; in experiment [6] (setting [20]) it was −0.05. Further, the “logarithmic value of ratio of IC40 values” in experiment [6] (setting [21]) is 0.15; in experiment [7], −0.08; in experiment [8] it was 0.42; in experiment [9] it was 0.09; in experiment [10], −0.18; in [11], 0.00. The “logarithmic value of ratio of IC40 values” in experiment [12] is 0.10; in experiment [13] it was 0.00; in experiment [14], −0.14; in experiment [15] it was −0.14; in experiment [16] it was 0.43; in [17] it was 0.00. In addition, the “logarithmic value of ratio of IC40 values” was −0.11 in experiment [18] (setting [22]), 0.09 in experiment [18] (setting [23]) and −0.05 in experiment [19].
As for `COC(=O)[C@@]1(O)C[C@H]2O[C@]1(C)n1c3ccccc3c3c4c(c5c6ccccc6n2c5c31)C(=O)NC4` [K252a], the “logarithmic value of ratio of IC40 values” is −0.10 in experiment [1]; 0.04 in [2]; 0.15 in experiment [3]; 0.28 in [4]; −0.207 in experiment [5]; −0.11 in experiment [6] (setting [20]). Further, the “logarithmic value of ratio of IC40 values” in [6] (setting [21]) is 0.60; in experiment [7] it was −0.22; in [8], 0.00; in [9], 0.28; in [10], −0.21; in [11] it was −0.19. The “logarithmic value of ratio of IC40 values” in [12] is 0.37; in experiment [13] it was 0.10; in experiment [14], 0.1; in experiment [15] it was 0.15; in [16] it was −0.16; in [17], 0.23. Besides, the “logarithmic value of ratio of IC40 values” in experiment [18] (setting [22]) is listed as 0.00; in experiment [18] (setting [23]), −0.09; in [19], −0.15.
Regarding `CC(=O)OCOC(=O)CN(CC(=O)OCOC(C)=O)c1ccccc1OCCOc1ccccc1N(CC(=O)OCOC(C)=O)CC(=O)OCOC(C)=O` [BAPTA-AM], the “logarithmic value of ratio of IC40 values” in experiment [1] was determined as 0.34; in experiment [2], 0.60; in [3] it was 0.10; in experiment [4], 0.00; in experiment [5], 0.20; in [6] (setting [20]), 0.15. In addition, the “logarithmic value of ratio of IC40 values” in [6] (setting [21]) was 0.00; in [7], −0.10; in experiment [8] it was 0.09; in experiment [9], 0.00; in experiment [10], −0.07; in [11], −0.02. In addition, the “logarithmic value of ratio of IC40 values” is 0.23 in experiment [12]; 0.31 in experiment [13]; 0 in [14]; −0.15 in experiment [15]; 0.00 in experiment [16]; 0.00 in [17]. The “logarithmic value of ratio of IC40 values” in [18] (setting [22]), in experiment [18] (setting [23]) and in experiment [19] was 0.00 in each case.
Regarding `O=[As]O` [NaAsO2, sodium arsenite], the “logarithmic value of ratio of IC40 values” in experiment [1] is −0.05; in [2], −0.21; in experiment [3], 0.16; in [4], −0.07; in experiment [5] it was −0.14; in experiment [6] (setting [20]), −0.10. The “logarithmic value of ratio of IC40 values” in experiment [6] (setting [21]) is given as 0.34; in experiment [7] it was 0.00; in experiment [8], −0.19; in experiment [9], 0.21; in experiment [10], 0.00; in experiment [11], 0.15. In addition, the “logarithmic value of ratio of IC40 values” is reported as 0.18 in experiment [12]; 0.00 in experiment [13]; 0 in [14]; 0.08 in experiment [15]; −0.19 in experiment [16]; 0.18 in experiment [17]. Further, the results for the “logarithmic value of ratio of IC40 values” in [18] (setting [22]), in [18] (setting [23]) and in experiment [19] were −0.07, 0.35 and 0.00, respectively.
Consider `O=CN/C=C/c1cc(O)ccc1O` [Erbstatin, erbstatin], for which the “logarithmic value of ratio of IC40 values” was 0.08 in experiment [1]; −0.22 in experiment [2]; 0.04 in experiment [3]; 0.11 in [4]; 0.391 in experiment [5]; 0.27 in [6] (setting [20]). The “logarithmic value of ratio of IC40 values” in [6] (setting [21]) is on record as 0.04; in experiment [7], 2.00; in experiment [8], 0.33; in experiment [9] it was 0.14; in experiment [10], −0.03; in experiment [11], −0.06. The “logarithmic value of ratio of IC40 values” in [12] is −0.07; in experiment [13], 0.00; in [14] it was −0.2; in experiment [15], 0.04; in [16] it was −0.22; in [17], 0.05. Further, the “logarithmic value of ratio of IC40 values” is −0.12 in experiment [18] (setting [22]), 0.00 in [18] (setting [23]) and 0.06 in experiment [19].
